This note sets out measurements from BindingDB's records for patent US12459916 (Bayer Pharma Aktiengesellschaft, 2025).

In this test the target is T1, Interleukin-1 receptor-associated kinase 4 (UniProt A0A8C0TG75).
T1 sequence (A0A8C0TG75 whole entry): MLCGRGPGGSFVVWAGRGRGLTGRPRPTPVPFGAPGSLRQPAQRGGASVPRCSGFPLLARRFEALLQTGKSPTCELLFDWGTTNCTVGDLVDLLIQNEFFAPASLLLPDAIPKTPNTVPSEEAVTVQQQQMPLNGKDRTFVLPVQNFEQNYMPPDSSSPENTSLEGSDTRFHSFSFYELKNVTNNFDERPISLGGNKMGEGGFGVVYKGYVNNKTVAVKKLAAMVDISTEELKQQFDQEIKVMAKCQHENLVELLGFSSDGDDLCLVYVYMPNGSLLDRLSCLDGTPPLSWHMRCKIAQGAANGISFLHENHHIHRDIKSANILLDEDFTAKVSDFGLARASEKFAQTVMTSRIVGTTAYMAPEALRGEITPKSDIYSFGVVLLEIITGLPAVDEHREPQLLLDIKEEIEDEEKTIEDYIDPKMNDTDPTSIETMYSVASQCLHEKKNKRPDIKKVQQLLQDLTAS
The test is described as follows: Canine IRAK4 Kinase Assay.

Experimental: 50 nl of the respective solution were pipetted into a black low-volume 384-well microtitre plate (Greiner Bio-One, Frickenhausen, Germany), 2 μl of a solution of Irak4 in assay buffer [50 mM HEPES pH 7.5, 5 mM MgCl2, 1.0 mM dithiothreitol, 30 μM activated sodium orthovanadate, 0.1% (w/v) of bovine gamma-globulin (BGG) 0.04% (v/v) nonidet-P40 (Sigma)] were added and the mixture was incubated for 15 min to allow prebinding of the substances to the enzyme prior to the kinase reaction. […] The concentration of the Irak4 was adjusted to the respective activity of the enzyme and set such that the assay was carried out in the linear range. Typical concentrations were in the order of about 0.1 nM.

As usually defined, the IC50 is the concentration that gives 50% inhibition. Low readings indicate greater potency in that assay, high ones weaker potency in that assay. Molecule `CC(C)(O)CCn1cc2cc(NC(=O)c3cccc(C(F)F)n3)c(C(C)(C)O)cc2n1` [US12459916, Example 13] showed an IC50 of 1.75 nM.
The result for `Cc1nc(C(=O)Nc2cc3cn(CCC(C)(C)O)nc3cc2C(C)(C)O)ccc1F` [US12459916, Example 19] reads 8.46 nM.
